This is an account of results in patent US12037333B2, “Pyridopyrazine and pyridotriazine inhibitors of influenza virus replication” (priority 2018, dated 2024).

One assay concerns Influenza type B (cell culture adapted strain B/Lee/40, ATCC VR-1535). Description: Influenza antiviral assay: inhibition of virus-induced cytopathic effects (CPE) in MDCK cells, XTT dye reduction. Particulars: Influenza B virus, MDCK, 96 h, strain B/Lee/40, MDCK cells, CPE inhibition at 4 days. It counts as cell-based.
Take `CN1CN(C23c4ccccc4CC2Cc2ccccc23)n2ccc(=O)c(O)c2C1=O` (centres unmarked) [Compound A1, 1-(9a, 10-dihydroindeno[1,2-a]inden-4b(9H)-yl)-5-hydroxy-3-methyl-2,3-dihydro-1H-pyrido[2,1-f][1,2,4]triazine-4,6-dione]: the EC50 (in general, the concentration giving half of the maximal effect) was 250 to 375 nM.
Still for that read-out and setting: the value for `O=C1c2c(O)c(=O)ccn2N(C23c4ccccc4CC2Cc2ccccc23)CN1CC1CC1` (centres unmarked) [Compound A2, 3-Cyclopropylmethyl-1-(9a,10-dihydro-9H-indeno[1,2-a]inden-4b-yl)-5-hydroxy-2,3-dihydro-1H-pyrido[2,1-f][1,2,4]triazine-4,6-dione] was greater than 500 nM.
Take `CN1CN(C23c4ccc(F)cc4CC2Cc2cc(F)ccc23)n2ccc(=O)c(O)c2C1=O` (centres unmarked) [Compound A3, 1-(2,7-Difluoro-9a,10-dihydro-9H-indeno[1,2-a]inden-4b-yl)-5-hydroxy-3-methyl-2,3-dihydro-1H-pyrido[2,1-f][1,2,4]triazine-4,6-dione]: the EC50 was greater than 500 nM.
On the same count and under the same terms, the value for `O=C1c2c(O)c(=O)ccn2N(C23c4ccccc4CC2Cc2ccccc23)CN1Cc1ccccc1` (centres unmarked) [Compound A4, 3-Benzyl-1-(9a,10-dihydro-9H-indeno[1,2-a]inden-4b-yl)-5-hydroxy-2,3-dihydro-1H-pyrido[2,1-f][1,2,4]triazine-4,6-dione] was greater than 500 nM; that for `O=C1c2c(O)c(=O)ccn2N(C23c4ccccc4CC2Cc2ccccc23)CN1CCOc1ccccc1` (centres unmarked) [Compound A7, 1-(9a,10-Dihydro-9H-indeno[1,2-a]inden-4b-yl)-5-hydroxy-3-(2-phenoxy-ethyl)-2,3-dihydro-1H-pyrido[2,1-t][1,2,4]triazine-4,6-dione] was less than 125 nM.
On the same count and under the same terms, the value for `CN1CN(C23c4cc(F)c(F)cc4CC2Cc2cc(F)c(F)cc23)n2ccc(=O)c(O)c2C1=O` (centres unmarked) [Compound A8, 5-Hydroxy-3-methyl-1-(2,3,6,7-tetrafluoro-9a,10-dihydro-9H-indeno[1,2-a]inden-4b-yl)-2,3-dihydro-1H-pyrido[2,1-f][1,2,4]triazine-4,6-dione] was greater than 500 nM; that for `O=C1c2c(O)c(=O)ccn2N(C23c4ccccc4CC2Cc2c3ccc(F)c2F)CN1CC1CC1` (centres unmarked) [Compound A9, 3-Cyclopropylmethyl-1-(1,2-difluoro-9a,10-dihydro-9H-indeno[1,2-a]inden-4b-yl)-5-hydroxy-2,3-dihydro-1H-pyrido[2,1-f][1,2,4]triazine-4,6-dione] was 125 to 250 nM.
The same measure, in the same setting: under `CCN1CN(C23c4ccccc4CC2Cc2cc(F)c(F)cc23)n2ccc(=O)c(O)c2C1=O` (centres unmarked) [Compound A10, 1-(2,3-Difluoro-9a,10-dihydro-9H-indeno[1,2-a]inden-4b-yl)-3-ethyl-5-hydroxy-2,3-dihydro-1H-pyrido[2,1-f][1,2,4]triazine-4,6-dione] stands greater than 500 nM; under `O=C1c2c(O)c(=O)ccn2N(C23c4ccccc4CC2Cc2c3ccc(F)c2F)CN1Cc1ccccc1` (centres unmarked) [Compound A11, 3-Benzyl-1-(1,2-difluoro-9a,10-dihydro-9H-indeno[1,2-a]inden-4b-yl)-5-hydroxy-2,3-dihydro-1H-pyrido[2,1-t][1,2,4]triazine-4,6-dione], 375 to 500 nM.
For the compound `CN1CN(C23c4cccc(F)c4CC2Cc2c(F)cccc23)n2ccc(=O)c(O)c2C1=O` (centres unmarked) [Compound A12, 1-(1,8-Difluoro-9a,10-dihydro-9H-indeno[1,2-a]inden-4b-yl)-5-hydroxy-3-methyl-2,3-dihydro-1H-pyrido[2,1-f][1,2,4]triazine-4,6-dione], the EC50 was greater than 500 nM.
Turning to `O=C1c2c(O)c(=O)ccn2N(C23c4ccccc4CC2Cc2cc(F)c(F)cc23)CN1CC1CC1` (centres unmarked) [Compound A13, 3-Cyclopropylmethyl-1-(2,3-difluoro-9a,10-dihydro-9H-indeno[1,2-a]inden-4b-yl)-5-hydroxy-2,3-dihydro-1H-pyrido[2,1-f][1,2,4]triazine-4,6-dione], the EC50 is less than 125 nM.
Same read-out and setting: the value for `CCN1CN(C23c4ccccc4CC2Cc2c3ccc(F)c2F)n2ccc(=O)c(O)c2C1=O` (centres unmarked) [Compound A14, 1-(1,2-Difluoro-9a,10-dihydro-9H-indeno[1,2-a]inden-4b-yl)-3-ethyl-5-hydroxy-2,3-dihydro-1H-pyrido[2,1-f][1,2,4]triazine-4,6-dione] was 125 to 250 nM; that for `O=C1c2c(O)c(=O)ccn2N(C23c4ccccc4CC2Cc2c3ccc(F)c2F)CN1CC1CCOCC1` (centres unmarked) [Compound A15, 1-(1,2-Difluoro-9a,10-dihydro-9H-indeno[1,2-a]inden-4b-yl)-5-hydroxy-3-(tetrahydro-pyran-4-ylmethyl)-2,3-dihydro-1H-pyrido[2,1-f][1,2,4]triazine-4,6-dione] was less than 125 nM; that for `O=C1c2c(O)c(=O)ccn2N(C23c4ccccc4CC2Cc2cc(F)c(F)cc23)CN1CC1CCOCC1` (centres unmarked) [Compound A16, 1-(2,3-Difluoro-9a,10-dihydro-9H-indeno[1,2-a]inden-4b-yl)-5-hydroxy-3-(tetrahydro-pyran-4-ylmethyl)-2,3-dihydro-1H-pyrido[2,1-f][1,2,4]triazine-4,6-dione] was less than 125 nM.
The same measure, in the same setting: under `O=C1c2c(O)c(=O)ccn2N(C23c4ccccc4CC2Cc2c3ccc(F)c2F)CN1Cc1ccc(F)cc1` (centres unmarked) [Compound A17, 1-(1,2-Difluoro-9a,10-dihydro-9H-indeno[1,2-a]inden-4b-yl)-3-(4-fluoro-benzyl)-5-hydroxy-2,3-dihydro-1H-pyrido[2,1-f][1,2,4]triazine-4,6-dione] stands 125 to 250 nM.
In turn, `CN1CN(C23c4ccccc4CC2Cc2cc(F)c(F)cc23)n2ccc(=O)c(O)c2C1=O` (centres unmarked) [Compound A19, 1-(2,3-difluoro-9a,10-dihydroindeno[1,2-a]inden-4b(9H)-yl)-5-hydroxy-3-methyl-2,3-dihydro-1H-pyrido[2,1-f][1,2,4]triazine-4,6-dione] registered an EC50 of 250 to 375 nM.
`O=C1c2c(O)c(=O)ccn2N(C23c4ccccc4CC2Cc2cc(F)c(F)cc23)CN1Cc1ccccc1` (centres unmarked) [Compound A21, 3-benzyl-1-(2,3-difluoro-9a,10-dihydroindeno[1,2-a]inden-4b(9H)-yl)-5-hydroxy-2,3-dihydro-1H-pyrido[2,1-f][1,2,4]triazine-4,6-dione] registered an EC50 of less than 125 nM.
The same measure, in the same setting: the value for `O=C1c2c(O)c(=O)ccn2N(C23c4ccccc4CC2Cc2cc(F)c(F)cc23)CN1CCc1ccccc1` (centres unmarked) [Compound A22, 1-(2,3-difluoro-9a,10-dihydroindeno[1,2-a]inden-4b(9H)-yl)-5-hydroxy-3-phenethyl-2,3-dihydro-1H-pyrido[2,1-f][1,2,4]triazine-4,6-dione] was less than 125 nM; that for `O=C1c2c(O)c(=O)ccn2N(C23c4ccccc4CC2Cc2cc(F)c(F)cc23)CN1Cc1ccc(F)cc1` (centres unmarked) [Compound A23, 1-(2,3-Difluoro-9a,10-dihydro-9H-indeno[1,2-a]inden-4b-yl)-3-(4-fluoro-benzyl)-5-hydroxy-2,3-dihydro-1H-pyrido[2,1-f][1,2,4]triazine-4,6-dione] was 250 to 375 nM; that for `O=C1c2c(O)c(=O)ccn2N(C23c4ccccc4CC2Cc2cc(F)c(F)cc23)CN1Cc1cccc(F)c1` (centres unmarked) [Compound A24, 1-(2,3-difluoro-9a,10-dihydroindeno[1,2-a]inden-4b(9H)-yl)-3-(3-fluorobenzyl)-5-hydroxy-2,3-dihydro-1H-pyrido[2,1-f][1,2,4]triazine-4,6-dione] was 375 to 500 nM.
On the same count and under the same terms, the value for `O=C1c2c(O)c(=O)ccn2N(C23c4ccccc4CC2Cc2c3ccc(F)c2F)CN1CCc1ccccc1` (centres unmarked) [Compound A25, 1-(1,2-difluoro-9a,10-dihydroindeno[1,2-a]inden-4b(9H)-yl)-5-hydroxy-3-phenethyl-2,3-dihydro-1H-pyrido[2,1-f][1,2,4]triazine-4,6-dione] was 375 to 500 nM; that for `O=C1c2c(O)c(=O)ccn2N(C23c4ccccc4CC2Cc2c3ccc(F)c2F)CN1Cc1cccc(F)c1` (centres unmarked) [Compound A26, 1-(1,2-difluoro-9a,10-dihydroindeno[1,2-a]inden-4b(9H)-yl)-3-(3-fluorobenzyl)-5-hydroxy-2,3-dihydro-1H-pyrido[2,1-f][1,2,4]triazine-4,6-dione] was 250 to 375 nM; that for `O=C1c2c(O)c(=O)ccn2N(C23c4ccccc4CC2Cc2c3ccc(F)c2F)CN1CCc1cccc(F)c1` (centres unmarked) [Compound A27, 1-(1,2-difluoro-9a,10-dihydroindeno[1,2-a]inden-4b(9H)-yl)-3-(3-fluorophenethyl)-5-hydroxy-2,3-dihydro-1H-pyrido[2,1-f][1,2,4]triazine-4,6-dione] was 250 to 375 nM.
The same measure, in the same setting: the value for `O=C1c2c(O)c(=O)ccn2N(C23c4ccccc4CC2Cc2cc(F)c(F)cc23)CN1CCc1cccc(F)c1` (centres unmarked) [Compound A28, 1-(2,3-difluoro-9a,10-dihydroindeno[1,2-a]inden-4b(9H)-yl)-3-(3-fluorophenethyl)-5-hydroxy-2,3-dihydro-1H-pyrido[2,1-f][1,2,4]triazine-4,6-dione] was 250 to 375 nM.
`O=C1c2c(O)c(=O)ccn2N(C23c4ccccc4CC2Cc2cc(F)c(F)cc23)CN1CCc1ccc(F)cc1` (centres unmarked) [Compound A29, 1-(2,3-difluoro-9a,10-dihydroindeno[1,2-a]inden-4b(9H)-yl)-3-(4-fluorophenethyl)-5-hydroxy-2,3-dihydro-1H-pyrido[2,1-f][1,2,4]triazine-4,6-dione] gave a concentration giving a half-maximal response (EC50) of 250 to 375 nM.
On the same count and under the same terms, under `CN1CN(C23C(=Cc4ccccc42)Cc2ccccc23)n2ccc(=O)c(O)c2C1=O` (centres unmarked) [Compound A30, 5-hydroxy-1-(indeno[1,2-a]inden-4b(9H)-yl)-3-methyl-2,3-dihydro-1H-pyrido[2,1-f][1,2,4]triazine-4,6-dione] stands 375 to 500 nM; under `O=C1c2c(O)c(=O)ccn2N(C23c4ccccc4CC2Cc2ccccc23)CN1Cc1cccc(Cl)c1F` (centres unmarked) [Compound A31, 3-(3-chloro-2-fluorobenzyl)-1-(9a,10-dihydroindeno[1,2-a]inden-4b(9H)-yl)-5-hydroxy-2,3-dihydro-1H-pyrido[2,1-f][1,2,4]triazine-4,6-dione], 375 to 500 nM.

Still in this assay, the particulars now being: strain B/Lee/40, MDCK cells, CPE inhibition at 4 days.
Compound `CC(CCN1CN(C23c4ccccc4CC2Cc2ccccc23)n2ccc(=O)c(O)c2C1=O)c1ccccc1` (centres unmarked) [Compound A32, 1-(9a,10-dihydroindeno[1,2-a]inden-4b(9H)-yl)-5-hydroxy-3-(3-phenylbutyl)-2,3-dihydro-1H-pyrido[2,1-f][1,2,4]triazine-4,6-dione] registered an EC50 of less than 125 nM.
Still for that read-out and setting: the value for `CC(CCN1CN(C23c4ccccc4CC2Cc2ccccc23)n2ccc(=O)c(O)c2C1=O)c1ccccc1` (centres unmarked) [Compound A33] was greater than 500 nM.
